Assay results from patent US20220168427A1 (Ranok Therapeutics (Hangzhou) Co. Ltd., priority 2019, published 2022).

Columns and labels:
[1] = biological target: HSP90α (Homo sapiens, UniProt P07900); experiment: HSP90α Binding Fluorescent Polarization (FP) Assay; details: competition with FITC-geldanamycin; read-out: HSP90 Binding Potency
Summary of the method: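 Duplicate wells held BSA buffer, FITC-geldanamycin tracer, compound (3-fold dilution plate spanning 40 μM–2.0 nM) and recombinant protein diluted to 28 μg/ml before addition. Polarization read at 30, 60 and 120 min, 25 °C. Background-corrected mP values gave IC50 through a four-parameter inhibitor-response fit.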

[2] = biological target: T1, BRD4 (BD1+BD2) (Homo sapiens, UniProt O60885); details: read-out: BRD4 Binding Potency
T1 construct: 1.8 μg/ml recombinant BRD4 (BD1+BD2 domains) protein

[3] = tested on: MV4-11 cells; experiment: MV4-11 Cell Cytotoxicity Assay; assay type: cell-based, human; details: CCK-8; for IC50 at 72 h: human, MV4-11 cells
Source text: % Inhibition=100−(D−B)/(S−B)*100%.
S: The absorbance of the maximum (cells with DMSO)
B: The absorbance of the minimum (medium with DMSO)

Compound	IC50 [1] [nM]	IC50 [2] [nM]	IC50 at 72 h [3] [nM]	IC50 ([3]; 72 hr) [nM]
Cc1sc2c(c1C)C(c1ccc(Cl)cc1)=N[C@@H](CC(=O)N1CCN(c3ccc(-n4c(O)nnc4-c4cc(C(C)C)c(O)cc4O)cc3)CC1)c1nnc(C)n1-2 [Compound 79, (S)-2-(4-(4-chlorophenyl)-2,3,9-trimethyl-6H-thieno[3,2-f][1,2,4]triazolo[4,3-a][1,4]diazepin-6-yl)-1-(4-(4-(3-(2,4-dihydroxy-5-isopropylphenyl)-5-hydroxy-4H-1,2,4-triazol-4-yl)phenyl)piperazin-1-yl)ethan-1-one]	100 to 1000	100 to 1000	< 100	–
Cc1nn(-c2ccc(C(N)=O)c(NCCOCCC3CCN(C(=O)C[C@@H]4N=C(c5ccc(Cl)cc5)c5c(sc(C)c5C)-n5c(C)nnc54)CC3)c2)c2c1C(=O)CC(C)(C)C2 [Compound 23, 2-((2-(2-(1-(2-((6S)-4-(4-chlorophenyl)-2,3,9-trimethyl-6H-thieno[3,2-f][1,2,4]triazolo[4,3-a][1,4]diazepin-6-yl)acetyl)piperidin-4-yl)ethoxy)ethyl)amino)-4-(3,6,6-trimethyl-4-oxo-4,5,6,7-tetrahydro-1H-indazol-1-yl)benzamide, trifluoroacetic acid]	> 1000	> 1000	100 to 1000	–
CCc1cc(-c2nnc(C(=O)NCCN3CCCCC3)n2-c2ccc(CN3CCN(CC4CCN(C(=O)C[C@@H]5N=C(c6ccc(Cl)cc6)c6c(sc(C)c6C)-n6c(C)nnc65)CC4)CC3)cc2)c(O)cc1O [Compound 117, (S)-4-(4-((4-((1-(2-(4-(4-chlorophenyl)-2,3,9-trimethyl-6H-thieno[3,2-f][1,2,4]triazolo[4,3-a][1,4]diazepin-6-yl)acetyl)piperidin-4-yl)methyl)piperazin-1-yl)methyl)phenyl)-5-(5-ethyl-2,4-dihydroxyphenyl)-N-(2-(piperidin-1-yl)ethyl)-4H-1,2,4-triazole-3-carboxamide, trifluoroacetic acid]	100 to 1000	< 100	< 100	–
COc1cccc(-c2cc(C(=O)Nc3ccc(-c4ccc(OC5CCN(CC[C@@H]6N=C(c7ccc(Cl)cc7)c7c(sc(C)c7C)-n7c(C)nnc76)CC5)cc4OCCN(C)C)cc3)ccc2OC)c1 [Compound 139, (S)—N-(4′-((1-(2-(4-(4-chlorophenyl)-2,3,9-trimethyl-6H-thieno[3,2-f][1,2,4]triazolo[4,3-a][1,4]diazepin-6-yl)ethyl)piperidin-4-yl)oxy)-2′-(2-(dimethylamino)ethoxy)-[1,1′-biphenyl]-4-yl)-3′,6-dimethoxy-[1,1′-biphenyl]-3-carboxamide]	> 1000	100 to 1000	–	100 to 1000
Cc1sc2c(c1C)C(c1ccc(Cl)cc1)=N[C@@H](CC(=O)N1CCC(CN3CCN(Cc4ccc(-n5c(C(=O)NCCN6CCCCC6)nnc5-c5ccc(O)cc5O)cc4)CC3)CC1)c1nnc(C)n1-2 [Compound 110, (S)-4-(4-((4-((1-(2-(4-(4-chlorophenyl)-2,3,9-trimethyl-6H-thieno[3,2-f][1,2,4]triazolo[4,3-a][1,4]diazepin-6-yl)acetyl)piperidin-4-yl)methyl)piperazin-1-yl)methyl)phenyl)-5-(2,4-dihydroxyphenyl)-N-(2-(piperidin-1-yl)ethyl)-4H-1,2,4-triazole-3-carboxamide, trifluoroacetic acid]	100 to 1000	< 100	100 to 1000	–
Cc1sc2c(c1C)C(c1ccc(Cl)cc1)=N[C@@H](CC(=O)N1CCC(CN3CCC(Cc4ccc(-n5c(C(=O)NCC(F)(F)F)nnc5-c5cc(C(C)C)c(O)cc5O)cc4)CC3)CC1)c1nnc(C)n1-2 [Compound 85, (S)-4-(4-((1-((1-(2-(4-(4-chlorophenyl)-2,3,9-trimethyl-6H-thieno[3,2-f][1,2,4]triazolo[4,3-a][1,4]diazepin-6-yl)acetyl)piperidin-4-yl)methyl)piperidin-4-yl)methyl)phenyl)-5-(2,4-dihydroxy-5-isopropylphenyl)-N-(2,2,2-trifluoroethyl)-4H-1,2,4-triazole-3-carboxamide, formic acid]	100 to 1000	100 to 1000	< 100	–
